Two substances from patent US20060116325A1, “Methods and compositions for inhibiting hiv-coreceptor interactions” (priority 2001, published 2006) can be followed below.

One assay addresses CXCR4 (Homo sapiens, UniProt P61073). In words: Binding of anti-CXCR4 antibody 12G5 to CEMx174 cells (flow cytometry). The note with it: for inhibition of 12G5 antibody binding to CXCR4: CEMx174 cells, preincubation 60 min 22° C., FIG. 5. Also noted: host or cells: CEMx174 (174xCEM). The procedure:
FIG. 5A. Dose dependent effect of peptide 15K in comparison with SDF-1α. FIG. 5B. The comparison of the effects of 15K and 15D. FIG. 5C. The comparison of the effects of 15K and 15KS. Cells were preincubated at 22° C. with peptides at designated concentrations of SDF-1α for 60 min. Then cells were incubated with FITC-labeled anti-human CXCR4 monoclonal antibodies 12G5 for 40 min at 22° C. and washed with FACS buffer prior to flow cytometry.
(§1) CEMx174 cells were pelleted and resuspended at 10^6 cells/ml in PBS containing 1% BSA and 0.1% sodium azide (FACS buffer). Cells were then preincubated with designated concentrations of peptides or SDF-1-α (1 μg/ml) at 22° C. for 60 min. FITC-labeled anti-human CXCR4 antibody (clone 12G5, BD PharMingen, San Diego, Calif.) was added to the cells per the manufactures instructions and further incubated at 22° C. for 40 minutes. Cells were extensively washed with FACS buffer and analyzed using a FACS Calibur flowcytometer (Becton Dickinson). HEK/CCR5 cells were suspended in Dulbecco's PBS containing 1% FCS and 0.05% NaN3 (10^4 cells in 100 μl) and incubated with or without 5 μg of MIP-1β (PeproTech, Rocky Hill, N.J.), 0.1 mM peptide 15D or 15K for 45 min at 22° C. Cells were then treated with FITC-conjugated anti-human CCR5 antibody (2D7; BD PharMingen, San Diego, Calif.), and incubated for 30 min at 22° C. Cells were washed twice, and analyzed using a FACScan flow cytometer (Becton Dickinson Immunocytometry Systems, San Jose, Calif.).
To determine if peptides 15D and 15K interact directly with chemokine receptors the effect of these and control peptides on the binding of anti-chemokine receptor antibodies to CXCR4 and CCR5 was studied. The monoclonal antibody 12G5 recognizes a conformational extracellular epitope on CXCR4. This antibody blocks the infectivity of some X4 strains of HIV-1 and HIV-2 (Endres et al., Cell 87:745-756, 1996; Hoxie et al., J. Reprod. Immunol. 41:197-211(1998); McKnight et al., J. Virol. 74:1692-1696(1997), 19, 26). […] Further, the binding of 12G5 to CXCR4 receptor-expressing cells is prevented by anti-HIV compounds. […] 73:2752-2761, 1999. To determine the importance of the particular amino acid sequence of the inhibitory activity of the peptides. The effects of peptide 15K and the corresponding scrambled peptide 15KS on binding of 12G5 to CXCR4 was compared. […] Apparently there is a direct correlation between the ability of 15K to inhibit the anti-CXCR4 antibody binding and its ability to inhibit HIV-1 infectivity since the scrambled peptide 15KS with the same amino acid comparison has reduced ability to manifest both these activities.

Assay [1] addresses T1, CCR5 (Homo sapiens, UniProt P51681). Put plainly: Competition with 125I-MIP-1β binding to SupT1/CCR5 cells. Also noted: expressed in transfected cells; host or cells: Sup-T1. The conditions noted are these: room temperature, 0.1% sodium azide, FIG. 7A. The procedure: FIGS. 7A through 7C depicts the inhibition of chemokine receptor ligand binding by peptide pre-treatment. FIG. 7A. Effect of pre-treatment with peptides 15K and 15D on the binding of MIP-1β to SupT1/CCR5 cells; FIG. 7B. Effect of pre-treatment with peptides 15K and 1SD on the binding of SDF-1α to CEMx174 cells; and FIG. 7C. Effect of pre-treatment with 15K and control peptide 15GIG on the binding of SDF-1α to CEmx174 cells. Binding studies were performed as described in Materials and Methods.
Binding assays were performed with HEK-CCR5 or HEK CXCR4 in triplicate by adding unlabeled competitor (anti-coreceptor binding peptide or control chemokine) and radiolabeled chemokine, 0.2 ng/ml (^125I-MIP-1β or SDF-1α, specific activity 2000 Ci/mmol, NEN Life Science Products) to a cell suspension (4×10^5 cells in 200 μl) in RPMI 1640 supplemented with 1% bovine serum albumin and 25 mM HEPES pH 8.0 (binding medium). […] The supernatant was aspirated and the cell-associated radioactivity was measured using a 1272 Wallac gamma counter. […] After incubation cells were transferred to the tubes containing 800 μl of 10% sucrose in PBS and harvested by centrifugation, the supematant was aspirated and the cell-associated radioactivity was measured using a 1272 Wallac gamma counter. The data were analyzed by nonlinear regression using the computer program GraphPad Prizm 3.0. […]

Assay [2] has as its target T1, CCR5. In words: Binding of anti-CCR5 antibody 2D7 to HEK293/CCR5 cells (flow cytometry). Also noted: expressed in transfected cells; host or cells: HEK-293. The note with it: 0.1 mM peptide, 45 min 22° C. The procedure:
as §1
The effect of the exemplary peptides 15K and 15D on the binding of 2D7 antibodies to CCR5 was assayed to further evaluate the mechanism of anti-coreceptor activity of the peptides. […]
The effects of peptides 15D and 15K on 2D7 antibody binding to HEK293/CCR5 cells were analyzed by flow cytometry.
Background: In flow cytometry, cells or beads pass a laser one at a time.

Chain of CXCR4 (P61073 whole entry): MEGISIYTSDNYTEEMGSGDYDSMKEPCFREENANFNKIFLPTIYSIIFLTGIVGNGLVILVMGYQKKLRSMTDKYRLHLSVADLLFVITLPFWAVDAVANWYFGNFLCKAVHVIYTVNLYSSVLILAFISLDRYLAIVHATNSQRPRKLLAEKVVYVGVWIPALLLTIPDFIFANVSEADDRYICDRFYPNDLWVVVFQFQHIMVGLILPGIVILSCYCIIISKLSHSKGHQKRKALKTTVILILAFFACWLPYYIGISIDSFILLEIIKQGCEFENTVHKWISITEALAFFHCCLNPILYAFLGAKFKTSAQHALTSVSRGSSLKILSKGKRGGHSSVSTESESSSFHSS
T1 sequence (P51681 whole entry): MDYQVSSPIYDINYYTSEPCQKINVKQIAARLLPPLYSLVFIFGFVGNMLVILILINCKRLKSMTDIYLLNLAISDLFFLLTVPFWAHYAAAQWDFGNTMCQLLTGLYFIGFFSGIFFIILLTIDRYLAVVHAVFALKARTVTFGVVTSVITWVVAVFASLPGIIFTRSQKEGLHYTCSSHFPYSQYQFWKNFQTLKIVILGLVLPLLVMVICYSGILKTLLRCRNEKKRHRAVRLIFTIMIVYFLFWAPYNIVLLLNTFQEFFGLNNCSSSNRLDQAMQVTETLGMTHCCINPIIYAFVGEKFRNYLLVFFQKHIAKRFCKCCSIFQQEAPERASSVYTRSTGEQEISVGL

On to IRKAHCNISRAKWND [Peptide 15K], for which, on CXCR4, the “inhibition of 12G5 antibody binding to CXCR4” value is reported as “inhibited the binding of the 12G5 antibody to CXCR4 in a dose-dependent manner”. Moreover, on CXCR4 (peptide at 50 μg/ml versus SDF-1α, FIG. 5A), the “inhibition of 12G5 antibody binding compared with SDF-1α” value was “approached the efficacy of SDF-1α”. The “inhibition of MIP-1β binding to CCR5” value at CCR5 [1] is recorded as “competitively inhibited chemokine binding”. The “effect on 2D7 anti-CCR5 antibody binding” value at CCR5 [2] was “No significant effect”.
As for “I R K A H C N I S R A D W N D [Peptide 15D]”, at CXCR4, the “inhibition of 12G5 antibody binding to CXCR4” value is listed as “less effective”. On CCR5 [1], the “inhibition of MIP-1β binding to CCR5” value was “competitively inhibited chemokine binding”. Also, the “effect on 2D7 anti-CCR5 antibody binding” value on CCR5 [2] is reported as “No significant effect”.
